Results reported in patent US8722654B2, “Lipoxin analogs as novel inhibitors of angiogenesis” (The Brigham and Women's Hospital, Inc., priority 2001, dated 2014).

Key:
Format in all cases: in vivo, BALB/c mice
IL-1α = IL-1α mRNA in inflamed corneas, real-time PCR; conditions: 24 h and 72 h
Experimental: (§1) The standard model for induction of inflammatory corneal NV is associated with development of intrastromal vessels in close association with a mixed-cell (primarily neutrophilic) infiltrate. (43,44) Three interrupted sutures (11-0 nylon, Sharpoint; Vanguard, Houston, Tex.) were placed intrastromally with two stromal incursions extending over 120° of the corneal circumference each to induce inflammatory corneal NV, which is also associated with significant LA, as described previously. (43) The corneas were followed by slit-lamp biomicroscopy for corneal NV development. […]
(§2) BALB/c mice were randomized to receive ATLa, or vehicle (normal saline) by subconjunctival injection in a masked fashion after suture or hydron pellet placement. […] (49) The physical properties were monitored routinely via LC/MS/MS matching the reported biological and physical properties prior to analysis in present experiments. […]
(§3) 1 μl of total cDNA, synthesized from 400 ng total RNA with random hexamers using Superscript™ III Reverse Transcriptase (Invitrogen, Carlsbad, Calif.), was loaded in each well and assays were performed in triplicates. […] The results were analyzed by comparative threshold cycle (CT) method. The relative expression level of each sample was expressed as fold change from normal control.

[1] = tested on: VEGF-A-induced corneal HA and LA; experiment: Corneal micropocket assay, VEGF-A pellet; conditions: VEGF-A micropellet
Experimental: (§4) The corneal micropocket assay in mice and quantification of the resultant NV has been described previously. (45,46) In brief, 0.3 μl of hydron pellets (IFN Sciences, New Brunswick, N.J.) containing 30 ng of murine IL-1β (R&D Systems, Minneapolis, Minn.) or 200 ng of VEGF-A (gift from BRB Preclinical Repository, National Cancer Institute) were prepared and implanted into the corneal stroma of male BALB/c mice. After 7 days the animals were sacrificed and the corneas were harvested for quantitative analysis of HA and LA.
(§5) BALB/c mice were randomized to receive ATLa, or vehicle (normal saline) by subconjunctival injection in a masked fashion after suture or hydron pellet placement. […] (49) The physical properties were monitored routinely via LC/MS/MS matching the reported biological and physical properties prior to analysis in present experiments.
(§6) Full thickness corneal tissue or 8 μm-frozen sections were fixed in acetone for 15 minutes at room temperature. […] Finally, the samples were covered with mounting medium (Vector Laboratories, Burlingame, Calif.) and analyzed by epifluorescence microscopy (Eclipse E800; Nikon, Tokyo, Japan). […]
(§7) To quantify corneal angiogenesis, digital pictures of corneal flat-mounts were taken using an image analysis system (Spot Image Analysis, Diagnostic Instruments, Sterling Heights, Mich.). […]

inflamed corneas = experiment: Neutrophil and macrophage infiltration in suture-inflamed corneas
Experimental: (§8) Six to eight-week-old male BALB/c (Taconic Farms, Germantown, N.Y.) mice were used in all experiments. All experimental protocols were approved by the Schepens Eye Research Institute Animal Care and Use Committee, and all animals were treated according to the Association for Research in Vision and Ophthalmology Statement for the Use of Animals in Ophthalmic and Vision Research.
The standard model for induction of inflammatory corneal NV is associated with development of intrastromal vessels in close association with a mixed-cell (primarily neutrophilic) infiltrate. (43,44) Three interrupted sutures (11-0 nylon, Sharpoint; Vanguard, Houston, Tex.) were placed intrastromally with two stromal incursions extending over 120° of the corneal circumference each to induce inflammatory corneal NV, which is also associated with significant LA, as described previously. (43) The corneas were followed by slit-lamp biomicroscopy for corneal NV development. NV was graded between 0 and 3, with increments of 0.5, using a grid system per each corneal quadrant based on the centripetal extent of the neovascular branches from the limbus. Scores for each quadrant then summed to derive the NV index (range 0 to 12) for each eye, as previously described. (43)
BALB/c mice were randomized to receive ATLa, or vehicle (normal saline) by subconjunctival injection in a masked fashion after suture or hydron pellet placement. The compounds were administered at a dose of 100 ng/10 μl per mouse every 48 h after suture or pellet placed. ATLa was synthesized as described previously. (49) The physical properties were monitored routinely via LC/MS/MS matching the reported biological and physical properties prior to analysis in present experiments.
Full thickness corneal tissue or 8 μm-frozen sections were fixed in acetone for 15 minutes at room temperature. To block non-specific staining, anti-FcR mAb ([…], FcγIII/II receptor) or 10% goat serum was used before primary antibodies or isotype-matched control antibodies were applied at 4° C. overnight. Thereafter, samples were incubated with secondary antibodies at RT. Each step was followed by three thorough washings in PBS for 5-10 minutes. Finally, the samples were covered with mounting medium (Vector Laboratories, Burlingame, Calif.) and analyzed by epifluorescence microscopy (Eclipse E800; Nikon, Tokyo, Japan). The following antibodies were used: FITC-conjugated rat anti-mouse CD31 (Santa Cruz Biotechnology, Santa Cruz, Calif.), purified rat anti-mouse neutrophil (NIMP-R14, Abcam, Cambridge, Mass.), purified rat anti-mouse F4/80 (Novus Biologicals, Littleton, Colo.) and purified rabbit anti-mouse LYVE-1 (Abcam, Cambridge, Mass.). The secondary antibodies were Rodamine-conjugated donkey anti-rabbit IgG and Rodamine-conjugated goat anti-rat IgG (Santa Cruz Biotechnology, Santa Cruz, Calif.). Isotype controls included FITC-conjugated rat IgG2a, purified rat IgG2b, and purified rabbit IgG (Santa Cruz Biotechnology, Santa Cruz, Calif.).

[2] = tested on: IL-1β-induced corneal HA and LA; experiment: Corneal micropocket assay, IL-1β pellet; conditions: IL-1β micropellet
Experimental: as §4, §5, §6, §7

VEGFR-3 = VEGFR-3 mRNA in inflamed corneas, real-time PCR; conditions: vs vehicle-treated controls
Experimental: as §1, §2, §3

TNF-α = TNF-α mRNA in inflamed corneas, real-time PCR
Experimental: as §1, §2, §3

VEGF-D = VEGF-D mRNA in inflamed corneas, real-time PCR; conditions: vs vehicle-treated controls
Experimental: as §1, §2, §3

[3] = tested on: suture-induced corneal NV; experiment: Suture-induced inflammatory corneal angiogenesis (HA and LA)
Experimental: as §8, §1, §5, §6
To quantify corneal angiogenesis, digital pictures of corneal flat-mounts were taken using an image analysis system (Spot Image Analysis, Diagnostic Instruments, Sterling Heights, Mich.). The areas covered by CD31^high/LYVE-1^−-vessels (blood vessels) or CD31^lowLYVE-1^high vessels (lymphatics) were measured morphometrically using NIH Image J software (version 1.34s; http://rsb.info.nih.gov/ij). […] The vessel density was calculated by the proportion of neovascularized area to the whole corneal area.

IL-1β = IL-1β mRNA in inflamed corneas, real-time PCR; conditions: vs vehicle-treated controls
Experimental: as §1, §2, §3

VEGF-C = VEGF-C mRNA in inflamed corneas, real-time PCR; conditions: 24 h and 72 h after suture placement
Experimental: as §1, §2, §3

mouse IL-1 beta = experiment: IL-1β protein in inflamed corneas, ELISA
Experimental: FIG. 13, ATLa Regulates IL-1β. Mice were treated at 0 h and 48 h after suture-placement with ATLa or vehicle. Whole corneas were excised at 72 h, and subsequently freeze-thawed 3 times. Cornea was then homogenized using a pellet pestile motor with additional protease inhibitors. Homogenates were centrifuged at 12,000 rpm for 5 minutes and the supernatant was assayed for mouse IL-1 beta via ELISA (eBioscience, USA) according to the manufacturer's instructions.
as §1, §5

VEGF-A = VEGF-A mRNA in inflamed corneas, real-time PCR; conditions: 24 h and 72 h after suture placement
Experimental: as §1, §2, §3

VEGFR-2 = VEGFR-2 mRNA in inflamed corneas, real-time PCR; conditions: 24 h and 72 h after suture placement
Experimental: as §1, §2, §3

[4] = 72 h after suture placement, n=3

COC(=O)CCC[C@H](O)[C@H](O)/C=C/C=C/C=C\C=C\[C@H](O)COc1ccc(F)cc1 [ATLa, 15-epi-16-(para-fluoro)-phenoxy-lipoxin A4 methyl ester]
expression of IL-1α (IL-1α): not significantly altered
LA ([1]; day 7): no significant reduction
BV density ([1]; day 7, n=4): 5.9±0.4%
inhibition of neutrophils recruitment (inflamed corneas; 24 and 72 h, 100 ng subconjunctival at 0 and 48 h): ~30%
neutrophils (inflamed corneas; 24 h after suture placement, n=3): 53±1 cells/section
reduction in macrophage infiltration (inflamed corneas; 72 h, vs vehicle): 25-40%
macrophage (inflamed corneas; [4]): 46±5 cells/section
neutrophils (inflamed corneas; [4]): 34±5 cells/section
LA ([2]; day 7): no significant reduction
BV density ([2]; day 7, n=4): 16.1±3.0%
mRNA expression of VEGFR-3 (VEGFR-3): not significantly altered
increase in TNF-α expression (TNF-α; 24 h): significantly suppressed
increase in TNF-α expression (TNF-α; 72 h): not at 72 h
mRNA expression of VEGF-D (VEGF-D): not significantly altered
growth of corneal neovessels, slit lamp biomicroscopy ([3]; 2-week time course): significant suppression of the angiogenic response
density of lymphatic vessels ([3]; day 14, vs vehicle): not observed
BV density ([3]; day 14 after suture placement, n=6): 8.26±0.63%
reduction in the increase of IL-1β expression levels (IL-1β): more than 50%
mRNA expression of VEGF-C (VEGF-C): lower mRNA expressions
IL-1 beta in corneas (mouse IL-1 beta; 72 h, treated at 0 h and 48 h, n=4): 21.3 ± 0.8 pg/mL
decrease in IL-1β protein level (mouse IL-1 beta; vs vehicle-treated group): 70%
mRNA expression of VEGF-A (VEGF-A): lower mRNA expressions
mRNA expression of VEGFR-2 (VEGFR-2): lower mRNA expressions
